≈ marks a conversion by molar mass, not a printed value. Read-outs that look alike come from different tables or passages of the source.
Experiments:
Assay type in all cases: cell-based
[1] = test system: NDM-1 K. pneumoniae XJ155019; test: Kirby Bauer disc diffusion
Excerpt: (§1) Supplementary Ta b l e 2. Identification and anti biotic susceptibility of NDM-1-producing K. pneumonia strains.
(§2) Antibiotics NDM-1 NDM-1 NDM-1 NDM-1 […]
(§3) Cefoperazone/ sul bact am KB 32 (S) 7 (R) 7 (R) 7 (R) 7 (R)
(§4) Nitrofurantoi n KB 21 (S) 7 (R) 9 (R) 10 (R) 9 (R) […]
(§5) R, resistant; S, sensitive; M IC , minimum inhibitory concentration; KB, Kirb y Baue r disc diffusion method .
(§6) The unit of M IC is “μg/mL”. The unit of KB is “mm”.

[2] = test system: NDM-1 K. pneumoniae XJ155018; test: Kirby Bauer disc diffusion
Excerpt: as §1, §2, §3, §4, §5, §6

[3] = test system: K. pneumoniae ATCC13883; test: Kirby Bauer disc diffusion
Excerpt: as §1, §2, §3, §4, §5, §6

[4] = test system: NDM-1 K. pneumoniae XJ155017; test: Kirby Bauer disc diffusion
Excerpt: as §1, §2, §3, §4, §5, §6

[5] = test system: NDM-1 K. pneumoniae XJ155020; test: Kirby Bauer disc diffusion
Excerpt: as §1, §2, §3, §4, §5, §6

[6] = test system: NDM-1 E. coli XJ141026; test: Kirby Bauer disc diffusion
Excerpt: (§7) Supplementary Table 1. Identification and antibiotic susceptibility of NDM-1-producing E. coli strains. […]
(§8) Cefoperazone/ sul bact am KB — — 7 (R) 7 (R) 7 (R)
(§9) Nitrofurantoi n KB — — 14 (R) 17 (R) 19 (S) […]
(§10) R, resistant; S, sensitive; M IC , minimum inhibitory concentration; KB, Kirb y Bauer disc diffusion method.
(§11) The unit of M IC is “ μ g/ mL”. The unit of KB is “ mm” .

[7] = test system: NDM-1 E. coli XJ141015; test: Kirby Bauer disc diffusion
Excerpt: as §7, §8, §9, §10, §11

[8] = test system: NDM-1 E. coli XJ141047; test: Kirby Bauer disc diffusion
Excerpt: as §7, §8, §9, §10, §11

[9] = test system: NDM-1 K. pneumoniae XJ155019; test: MIC, broth microdilution; details: Klebsiella pneumoniae, 16 h
Excerpt: (§12) MIC values were identified through microdilution in sterilized 96-well polypropylene microtiter plates according to the broth microdilution guideline of the Clinical and Laboratory Standards Institute[30]. The test medium was Mueller–Hinton broth (MHB), and the strain concentrations were adjusted to 5 × 10^5 CFU/mL.

[10] = test system: NDM-1 E. coli XJ141026; test: MIC, broth microdilution; details: Escherichia coli, 16 h
Excerpt: as §12

[11] = test system: NDM-1 K. pneumoniae XJ155018; test: MIC, broth microdilution; details: Klebsiella pneumoniae, 16 h
Excerpt: as §12

[12] = test system: E. coli ATCC35218; test: MIC, broth microdilution; details: Escherichia coli
Excerpt: as §12

[13] = test system: K. pneumoniae ATCC13883; test: MIC, broth microdilution; details: Klebsiella pneumoniae
Excerpt: as §12

[14] = test system: NDM-1 E. coli XJ141015; test: MIC, broth microdilution; details: Escherichia coli, 16 h
Excerpt: as §12

[15] = test system: NDM-1 K. pneumoniae XJ155017; test: MIC, broth microdilution; details: Klebsiella pneumoniae, 16 h
Excerpt: as §12

[16] = test system: E. coli ATCC25922; test: MIC, broth microdilution; details: Escherichia coli
Excerpt: as §12

[17] = test system: NDM-1 E. coli XJ141047; test: MIC, broth microdilution; details: Escherichia coli, 16 h
Excerpt: as §12

[18] = test system: NDM-1 K. pneumoniae XJ155020; test: MIC, broth microdilution; details: Klebsiella pneumoniae, 16 h
Excerpt: as §12

[19] = test system: NDM-1 K. pneumoniae XJ155019; test: Antibiotic susceptibility (MIC), automated identification system; details: Supplementary Table 2
Excerpt: (§13) Clinical isolate strains were identified and screened by the Phoenix 100 automated bacterial identification system to rapidly detect antimicrobial resistance. Total DNA was extracted by the TIANamp Bacteria DNA Kit according to the manufacturer’s protocol. The presence of blaNDM-1 was confirmed using a diagnostic kit for NDM-1 (Puruikang Bio Inc., Shenzhen, China) based on fluorescent quantitative polymerase chain reaction assay. According to the instruction, Ct values of less than 37 were considered positive.

[20] = test system: NDM-1 E. coli XJ141026; test: as above; details: Supplementary Table 1
Excerpt: as §13

[21] = test system: NDM-1 K. pneumoniae XJ155018; test: as above; details: Supplementary Table 2
Excerpt: as §13

[22] = test system: K. pneumoniae ATCC13883; test: as above; details: Supplementary Table 2
Excerpt: as §13

[23] = test system: NDM-1 E. coli XJ141015; test: as above; details: Supplementary Table 1
Excerpt: as §13

[24] = test system: NDM-1 K. pneumoniae XJ155017; test: as above; details: Supplementary Table 2
Excerpt: as §13

[25] = test system: E. coli ATCC25922; test: as above; details: Supplementary Table 1
Excerpt: as §13

[26] = test system: NDM-1 E. coli XJ141047; test: as above; details: Supplementary Table 1
Excerpt: as §13

[27] = test system: NDM-1 K. pneumoniae XJ155020; test: as above; details: Supplementary Table 2
Excerpt: as §13

[28] = Klebsiella pneumoniae, read-out: KB disc diffusion
[29] = MHB, 5 × 10^5 CFU/mL, 37 °C, read-out: MIC

SMILES: CO/N=C(\C(=O)N[C@@H]1C(=O)N2C(C(=O)O)=C(COC(N)=O)CS[C@H]12)c1ccco1 [Cefuroxime]
- susceptibility class (KB) [1]: R
- susceptibility class (KB) [2]: R
- inhibition zone diameter [2, 28]: 7 mM
- susceptibility class (KB) [3]: S
- inhibition zone diameter ([3]; Klebsiella pneumoniae, ATCC13883, read-out: KB disc diffusion): 23 mM
- susceptibility class (KB) [4]: R
- inhibition zone diameter (Kirby-Bauer disc diffusion) [4, 28]: 7 mM
- susceptibility class (KB) [5]: R
- disc diffusion inhibition zone diameter [5, 28]: 7 mM
- susceptibility class (KB) [6]: R
- susceptibility class (KB) [7]: R
- susceptibility class (KB) [8]: R
- inhibition zone diameter ([8]; Escherichia coli, read-out: KB disc diffusion): 7 mM

SMILES: Cc1onc(-c2ccccc2)c1C(=O)N[C@@H]1C(=O)N2[C@@H]1SC(C)(C)[C@@H]2C(=O)O [Oxacillin]
- MIC [9, 29]: > 256 µg/mL
- MIC [10, 29]: > 256 µg/mL
- MIC [11, 29]: > 256 µg/mL
- MIC ([12]; ATCC35218, MHB, 5 × 10^5 CFU/mL, 16 h, 37 °C, read-out: MIC): 256 µg/mL (≈ 638 µM)
- MIC ([13]; ATCC13883, MHB, 5 × 10^5 CFU/mL, 16 h, 37 °C, read-out: MIC): 64 µg/mL (≈ 159 µM)
- MIC [14, 29]: > 256 µg/mL
- MIC [15, 29]: > 256 µg/mL
- MIC ([16]; ATCC25922, MHB, 5 × 10^5 CFU/mL, 16 h, 37 °C, read-out: MIC): 64 µg/mL (≈ 159 µM)
- MIC [17, 29]: > 256 µg/mL
- MIC [18, 29]: > 256 µg/mL

SMILES: CO/N=C(\C(=O)N[C@@H]1C(=O)N2C(C(=O)O)=C(COC(C)=O)CS[C@H]12)c1csc(N)n1 [Cefotaxime]
- MIC ([19]; Klebsiella pneumoniae): > 32 µg/mL
- susceptibility class (MIC) [19]: R
- MIC ([20]; Escherichia coli): > 32 µg/mL
- susceptibility class (MIC) [20]: R
- MIC ([21]; Klebsiella pneumoniae): > 32 µg/mL
- susceptibility class (MIC) [21]: R
- MIC ([22]; Klebsiella pneumoniae, ATCC13883): ≤ 1 µg/mL
- susceptibility class (MIC) [22]: S
- MIC ([23]; Escherichia coli): > 32 µg/mL
- susceptibility class (MIC) [23]: R
- MIC ([24]; Klebsiella pneumoniae): > 32 µg/mL
- susceptibility class (MIC) [24]: R
- MIC ([25]; Escherichia coli, ATCC25922): ≤ 1 µg/mL
- susceptibility class (MIC) [25]: S
- MIC ([26]; Escherichia coli): > 32 µg/mL
- susceptibility class (MIC) [26]: R
- MIC ([27]; Klebsiella pneumoniae): > 32 µg/mL
- susceptibility class (MIC) [27]: R
- MIC [9]: > 256 µg/mL
- MIC [10]: > 256 µg/mL
- MIC [11]: > 256 µg/mL
- MIC ([12]; ATCC35218, 16 h): < 0.125 µg/mL
- MIC ([13]; ATCC13883, 16 h): < 0.125 µg/mL
- MIC [14]: > 256 µg/mL
- MIC [15]: > 256 µg/mL
- MIC ([16]; ATCC25922, 16 h): < 0.125 µg/mL
- MIC [17]: > 256 µg/mL
- MIC [18]: > 256 µg/mL
